Reference: patent US9512175B2, “Macrocyclic inhibitors of flaviviridae viruses” (Gilead Sciences, Inc., priority 2012, dated 2016)
Like-named read-outs stand apart in the source and are kept apart here.

What was measured:
cyclophilin A = cyclophilin A (Homo sapiens, UniProt P62937); assay: Cyclophilin A TR-FRET competitive binding assay; conditions: IC50 ranges, competition with CsA-Cy5 for His-tagged CypA, two-hour incubation
Procedure: Cyclophilin A TR-FRET Competitive Binding Assay
Inhibitor potency was measured using a competitive binding assay with a time-resolved fluorescence resonance energy transfer (TR-FRET) readout. […] An IC50 value was calculated using a four-parameter logistic fit.

[1] = tested on: HCV replicon (Replicon 1a); assay: anti-HCV activity in Huh-7 cell line harboring a HCV replicon (Replicon 1a); assay type: cell-based; conditions: for inhibition at 1 µM: Hepatitis C virus, Huh-7, 72 h
[2] = read-out: Replicon 1a % inhibition at 1 μM
[3] = read-out: Replicon 1a % inhibition at 1 μM, 1 μM, human hepatoma Huh-7 HCV replicon cells, 3 days, luciferase readout

Chain of cyclophilin A (P62937 whole entry, species assumed): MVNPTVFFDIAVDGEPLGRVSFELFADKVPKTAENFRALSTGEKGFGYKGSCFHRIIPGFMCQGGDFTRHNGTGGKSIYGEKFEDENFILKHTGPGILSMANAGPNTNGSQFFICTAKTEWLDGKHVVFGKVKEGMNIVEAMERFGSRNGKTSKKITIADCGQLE

| Compound | IC50 (cyclophilin A; TR-FRET) [nM] | inhibition at 1 µM [1, 2] [%] | IC50 (cyclophilin A; read-out: TR-FRET) [nM] | inhibition at 1 µM [1, 3] [%] | Replicon 1a % inhibition at 1 μM ([1]; 1 μM, human hepatoma Huh-7 HCV replicon cells, 3 days, luciferase readout) [%] |
| --- | --- | --- | --- | --- | --- |
| CO[C@@H]1/C=C/COc2cccc(c2)[C@@H](C(C)C)NC(=O)[C@@H]2CCCN(N2)C(=O)[C@H](C)NC(=O)[C@H](C(C)C)NC(=O)[C@@H]1C [Compound 37, (E)-(2R,5S,11 S,14S,17R,18R)-2,14-Diisopropyl-18-methoxy-11,17-dimethyl-22-oxa-3,9,12,15,28-pentaaza-tricyclo[21.3.1.1*5,9*]octacosa-1 (27),19,23,25-tetraene-4,10,13,16-tetraone] | < 100 | 76 |  |  |  |
| CC(C)[C@@H]1NC(=O)COc2ccc(cc2)-c2cccc(c2)[C@@H](C)OC(=O)[C@@H]2CCCN(N2)C(=O)[C@H](C)NC1=O [Compound 38] |  |  | < 100 | 98 |  |
| CC(C)[C@@H]1NC(=O)[C@H](C)Oc2ccc(cc2)-c2cccc(c2)[C@@H](C)OC(=O)[C@@H]2CCCN(N2)C(=O)[C@H](C)NC1=O [Compound 39] |  |  | < 100 | 98 |  |
| CC(C)[C@@H]1NC(=O)[C@@H](C)Oc2ccc(cc2)-c2cccc(c2)[C@@H](C)OC(=O)[C@@H]2CCCN(N2)C(=O)[C@H](C)NC1=O [Compound 40] |  |  | < 100 | 96 |  |
| CC(C)[C@@H]1NC(=O)COc2ccc(cc2)-c2cccc(n2)[C@@H](C)OC(=O)[C@@H]2CCCN(N2)C(=O)[C@H](C)NC1=O [Compound 41] |  |  | < 100 | 96 |  |
| CC(C)[C@@H]1NC(=O)CCn2cc(cn2)-c2cccc(c2)[C@@H](C)OC(=O)[C@@H]2CCCN(N2)C(=O)[C@H](C)NC1=O [Compound 42] |  |  | 101 to 1000 | 16 |  |
| CC(C)[C@@H]1NC(=O)CCc2ccc(cc2)-c2cccc(c2)[C@@H](C)OC(=O)[C@@H]2CCCN(N2)C(=O)[C@H](C)NC1=O [Compound 43] |  |  | < 100 | 97 |  |
| CC(C)[C@@H]1NC(=O)CCc2ccc(cn2)-c2cccc(c2)[C@@H](C)OC(=O)[C@@H]2CCCN(N2)C(=O)[C@H](C)NC1=O [Compound 44] |  |  | < 100 | 78 |  |
| CC(C)[C@@H]1NC(=O)CCc2ccc(nc2)-c2cccc(c2)[C@@H](C)OC(=O)[C@@H]2CCCN(N2)C(=O)[C@H](C)NC1=O [Compound 45] |  |  | < 100 | 80 |  |
| CC(C)[C@@H]1NC(=O)[C@H](C)CCCc2cc3cc(ccc3cn2)[C@@H](C)OC(=O)[C@@H]2CCCN(N2)C(=O)[C@H](C)NC1=O [Compound 46] |  |  | < 100 | 90 |  |
| C[C@@H]1NC(=O)[C@H](CO)NC(=O)C/C=C/c2cc3cc(ccc3cn2)[C@@H](C)OC(=O)[C@@H]2CCCN(N2)C1=O [Compound 47] |  |  | 101 to 1000 | 9 |  |
| C[C@@H]1NC(=O)[C@H]([C@@H](C)O)NC(=O)C/C=C/c2cc3cc(ccc3cn2)[C@@H](C)OC(=O)[C@@H]2CCCN(N2)C1=O [Compound 48] |  |  | < 100 | 40 |  |
| C[C@@H]1NC(=O)[C@H](CCn2ccnn2)NC(=O)C(C)(C)/C=C/c2cc3cc(ccc3cn2)[C@@H](C)OC(=O)[C@@H]2CCCN(N2)C1=O [Compound 50] |  | 12 | 101 to 1000 |  |  |
| C=CC[C@@H]1NC(=O)C(C)(C)/C=C/c2cc3cc(ccc3cn2)[C@@H](C)OC(=O)[C@@H]2CCCN(N2)C(=O)[C@H](C)NC1=O [Compound 52] |  |  | < 100 | 98 |  |
| C[C@@H]1NC(=O)[C@H](C2CCCCC2)NC(=O)C/C=C/c2cc3cc(ccc3cn2)[C@@H](C)OC(=O)[C@@H]2CCCN(N2)C1=O [Compound 53] |  |  | 101 to 1000 | 89 |  |
| C[C@@H]1NC(=O)[C@H](Cc2ccccc2)NC(=O)C/C=C/c2cc3cc(ccc3cn2)[C@@H](C)OC(=O)[C@@H]2CCCN(N2)C1=O [Compound 54] |  |  | < 100 | 98 |  |
| C[C@@H]1NC(=O)[C@H](Cc2cccnc2)NC(=O)C(C)(C)/C=C/c2cc3cc(ccc3cn2)[C@@H](C)OC(=O)[C@@H]2CCCN(N2)C1=O [Compound 55] |  |  | 101 to 1000 | 76 |  |
| C[C@@H]1NC(=O)[C@H](CCc2ccccc2)NC(=O)C/C=C/c2cc3cc(ccc3cn2)[C@@H](C)OC(=O)[C@@H]2CCCN(N2)C1=O [Compound 56] |  |  | 101 to 1000 | 47 |  |
| CC(C)[C@@H]1NC(=O)C2(CCOCC2)CCc2cc3cc(ccc3cn2)[C@@H](C)OC(=O)[C@@H]2CCCN(N2)C(=O)[C@H](C)NC1=O [Compound 60] |  |  | 101 to 1000 | 65 |  |
| CC(C)[C@@H]1NC(=O)CCCCCc2cc3cc(ccc3cn2)[C@@H](C)OC(=O)[C@@H]2CCCN(N2)C(=O)[C@H](C)NC1=O [Compound 62] |  |  | 101 to 1000 | 25 |  |
| CC(C)[C@@H]1NC(=O)CCCCCCc2cc3cc(ccc3cn2)[C@@H](C)OC(=O)[C@@H]2CCCN(N2)C(=O)[C@H](C)NC1=O [Compound 64] |  |  | 101 to 1000 | 35 |  |

| Compound | IC50 (cyclophilin A; TR-FRET) [nM] | inhibition at 1 µM [1, 2] [%] | IC50 (cyclophilin A; read-out: TR-FRET) [nM] | inhibition at 1 µM [1, 3] [%] | Replicon 1a % inhibition at 1 μM ([1]; 1 μM, human hepatoma Huh-7 HCV replicon cells, 3 days, luciferase readout) [%] |
| --- | --- | --- | --- | --- | --- |
| CC(C)[C@@H]1NC(=O)Cc2cccc(c2)-c2cc3cc(ccc3cn2)[C@@H](C)OC(=O)[C@@H]2CCCN(N2)C(=O)[C@H](C)NC1=O [Compound 65] |  |  | < 100 | 92 |  |
| CC(C)[C@@H]1NC(=O)C(C)(C)c2cccc(c2)-c2cc3cc(ccc3cn2)[C@@H](C)OC(=O)C2CCCN(N2)C(=O)[C@H](C)NC1=O (stereo partly drawn) [Compound 67] |  |  | < 100 | 97 |  |
| CC(C)[C@@H]1NC(=O)C(C)(C)COc2cc3cc(ccc3cn2)[C@@H](C)OC(=O)[C@H]2CCCN(N2)C(=O)[C@H](C)NC1=O [Compound 69] |  |  | 1000 to 10000 | 19 |  |
| C[C@@H]1NC(=O)[C@H](CCn2cc(CO)nn2)NC(=O)C(C)(C)/C=C/c2cc3cc(ccc3cn2)[C@@H](C)OC(=O)[C@@H]2CCCN(N2)C1=O [Compound 72] |  | 0 | 101 to 1000 |  |  |
| CC(C)[C@@H]1NC(=O)C2(/C=C/c3ccc4ccc(nc4c3)[C@@H](C)OC(=O)[C@@H]3CCCN(N3)C(=O)[C@H](C)NC1=O)COC2 [Compound 73] |  |  | < 100 | 94 |  |
| CC(C)[C@@H]1NC(=O)C(CO)(CO)/C=C/c2ccc3ccc(nc3c2)[C@@H](C)OC(=O)[C@@H]2CCCN(N2)C(=O)[C@H](C)NC1=O [Compound 76] |  |  | < 100 | 63 |  |
| CC(C)[C@@H]1NC(=O)[C@@](C)(COCC[Si](C)(C)C)/C=C/c2ccc3ccc(nc3c2)[C@@H](C)OC(=O)[C@@H]2CCCN(N2)C(=O)[C@H](C)NC1=O [Compound 77] | < 100 | 99 |  |  |  |
| CC(C)[C@@H]1NC(=O)[C@@](C)(CO)/C=C/c2ccc3ccc(nc3c2)[C@@H](C)OC(=O)[C@@H]2CCCN(N2)C(=O)[C@H](C)NC1=O [Compound 78] | < 100 | 99 |  |  |  |
| CC(C)[C@@H]1NC(=O)[C@](C)(COCC[Si](C)(C)C)/C=C/c2ccc3ccc(nc3c2)[C@@H](C)OC(=O)[C@@H]2CCCN(N2)C(=O)[C@H](C)NC1=O [Compound 79] | < 100 | 96 |  |  |  |
| CC(C)[C@@H]1NC(=O)[C@](C)(CO)/C=C/c2ccc3ccc(nc3c2)[C@@H](C)OC(=O)[C@@H]2CCCN(N2)C(=O)[C@H](C)NC1=O [Compound 80] | < 100 | 97 |  |  |  |
| CC(C)[C@@H]1NC(=O)[C@H](CC2CC2)/C=C/c2ccc3ccc(nc3c2)[C@@H](C)OC(=O)[C@@H]2CCCN(N2)C(=O)[C@H](C)NC1=O [Compound 81] | < 100 | 100 |  |  |  |
| CC(C)[C@@H]1NC(=O)C(C)(C)/C=C/c2ccc3ccc(nc3c2)[C@@H](C)OC(=O)[C@@H]2CCCN(N2)C(=O)[C@H](CO)NC1=O [Compound 82] |  |  | < 100 | 99 |  |
| CC(C)[C@@H]1NC(=O)[C@@H]([C@@H](C)O)/C=C/c2ccc3ccc(nc3c2)[C@@H](C)OC(=O)[C@@H]2CCCN(N2)C(=O)[C@H](C)NC1=O [Compound 83] |  |  | < 100 | 99 |  |
| CC(C)[C@H]1C(=O)N[C@@H](C)C(=O)N2CCC[C@H](N2)C(=O)N[C@H](C)c2ccc3ccc(cc3n2)/C=C/C2(C)CCN1C2=O [Compound 84] |  |  | < 100 | 63 |  |
| CC(C)[C@@H]1NC(=O)C(C)(C(C)O)/C=C/c2ccc3ccc(nc3c2)[C@@H](C)OC(=O)[C@@H]2CCCN(N2)C(=O)[C@H](C)NC1=O (stereo partly drawn) [Compound 89] |  |  | < 100 | 99 |  |
| CC(C)[C@@H]1NC(=O)C(C)(C(C)O)/C=C/c2ccc3ccc(nc3c2)[C@@H](C)OC(=O)[C@@H]2CCCN(N2)C(=O)[C@H](C)NC1=O (stereo partly drawn) [Compound 90] |  |  | < 100 |  | 100 |
| CC(C)[C@@H]1NC(=O)C(C)(C)/C=C/c2ccc3ccc(nc3c2)[C@@H](C)OC(=O)[C@@H]2CCCN(N2)C(=O)[C@H]([C@@H](C)O)NC1=O [Compound 91] |  |  | < 100 | 99 |  |
| CC(C)[C@@H]1NC(=O)C(C)(C)/C=C/c2ccc3ccc(nc3c2)[C@@H](C)OC(=O)[C@@H]2CCCN(N2)C(=O)[C@H](CC(=O)OC(C)(C)C)NC1=O [Compound 92] |  |  | < 100 | 100 |  |
| CC(C)[C@@H]1NC(=O)C(C)(C)/C=C/c2ccc3ccc(nc3c2)[C@@H](C)OC(=O)[C@@H]2CCCN(N2)C(=O)[C@H](CC(=O)O)NC1=O [Compound 93] |  |  | < 100 | 68 |  |
| CC(C)[C@@H]1NC(=O)C(C)(C)/C=C/c2ccc3ccc(nc3c2)[C@@H](C)OC(=O)[C@@H]2CCCN(N2)C(=O)[C@H](Cc2cn(C(c3ccccc3)(c3ccccc3)c3ccccc3)cn2)NC1=O [Compound 94] |  |  | < 100 | 96 |  |
| CC(C)[C@@H]1NC(=O)C(C)(C)/C=C/c2ccc3ccc(nc3c2)[C@@H](C)OC(=O)[C@@H]2CCCN(N2)C(=O)[C@H](Cc2c[nH]cn2)NC1=O [Compound 95] |  |  | < 100 | 68 |  |
